The record followed here is patent US20100280056A1, “IDENTIFICATION OF SUBJECTS LIKELY TO BENEFIT FROM STATIN THERAPY” (The Govt. of the U. S. as Represented by the Secretary of …, priority 2007, published 2010).

The assay has as its system colon cancer cell lines. Nature of the assay: Total cholesterol content of colon cancer cell lines with and without atorvastatin (Cholesterol/Cholesteryl Ester Quantification Kit). Format: cell-based. The note with it: 25 μM atorvastatin, 24 hours, serum-free medium; cell lines with rs12654264 A allele compared to T allele (FIG. 4).

Description: Microsatellite stable (MSS) colon cancer cell lines (SW480, SW620, HT29, WiDr, and SW1417) were cultured in RPMI (supplemented with 10% Fetal Bovine Serum, 100 IU/mL of Penicillin, 100 IU/mL of Streptomycin, and 1× Non-Essential Amino Acid) at 37° C. in an atmosphere of 5% CO2. The cells were trypsinized and washed with PBS twice. […] The cholesterol level of each colon cancer line was measured using Cholesterol/Cholesteryl Ester Quantification Kit from Abcam (Cambridge, Mass.). Cells were plated into 6-well plates to reach approximate confluency of 70%. After overnight incubation, the cells were treated with 25 μM atorvastatin diluted in serum-free DMEM/F12 50:50 (supplemented with 100 IU/mL of Penicillin, 100 IU/mL of Streptomycin, and 1× Non-Essential Amino Acid) for 24 hours at 37° C., 5% CO2. After treatment, the cells were trypsinized and counted to 1×10^6 cells. The cells were pelleted, washed with PBS twice, and resuspended in 200 μl of pure chloroform with 1% Triton® X-100. The cell suspension was vortexed for 15 seconds, and centrifuged at maximum speed for 10 minutes. The lower (organic) phase was collected and air dried at 50° C., followed by vacuum drying for 30 minutes to remove the chloroform. The dried lipids were resuspended with 100 μl of the Cholesterol Reaction Buffer provided in the kit, and vortexed for 5 minutes vigorously at room temperature. […]

`CC(C)c1c(C(=O)Nc2ccccc2)c(-c2ccccc2)c(-c2ccc(F)cc2)n1CC[C@@H](O)C[C@@H](O)CC(=O)O` [atorvastatin]: the statin-dependent cholesterol reduction entry is “significantly greater statin-dependent cholesterol reduction”.
